Data taken from US4614714A (priority 1982, dated 1986).
Entries after “also recorded” stand apart in the source; their conditions may differ. Counter-ions that a name gives are not always drawn. Like-named read-outs stand apart in the source and are kept apart here.

Experiments:
[1] = target: T1, immobilized L-glutamic acid oxidase (Streptomyces sp, UniProt Q8L3C7); test: Responses of the L-glutamic acid sensor of Example C1 to various amino acids; assay type: biochemical, Streptomyces sp. X-119-6
T1 construct: from the cultured product of an actinomycete newly isolated from a soil sample; made in house; host or cells: cultured product of the natural (non-recombinant) actinomycete strain; immobilized on a Cellophane membrane with glutaraldehyde
T1 sequence (Q8L3C7 15-390 limits assumed): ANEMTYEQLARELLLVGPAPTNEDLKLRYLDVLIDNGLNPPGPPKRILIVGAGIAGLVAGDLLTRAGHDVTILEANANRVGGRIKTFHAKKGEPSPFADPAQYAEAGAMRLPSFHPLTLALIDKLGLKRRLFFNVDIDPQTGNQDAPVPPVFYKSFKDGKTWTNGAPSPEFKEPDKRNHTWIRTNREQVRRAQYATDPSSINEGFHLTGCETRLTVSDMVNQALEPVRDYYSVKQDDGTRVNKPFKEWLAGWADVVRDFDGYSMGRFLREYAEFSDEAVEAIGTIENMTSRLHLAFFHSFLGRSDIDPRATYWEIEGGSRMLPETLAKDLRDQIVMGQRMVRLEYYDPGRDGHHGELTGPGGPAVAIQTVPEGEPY
T1 sequence (Q8L3C7 391-520 limits assumed): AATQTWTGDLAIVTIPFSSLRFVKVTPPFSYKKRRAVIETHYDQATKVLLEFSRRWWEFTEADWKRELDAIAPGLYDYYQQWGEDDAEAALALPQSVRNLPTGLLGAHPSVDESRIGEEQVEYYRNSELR
T1 sequence (Q8L3C7 521-701 limits assumed): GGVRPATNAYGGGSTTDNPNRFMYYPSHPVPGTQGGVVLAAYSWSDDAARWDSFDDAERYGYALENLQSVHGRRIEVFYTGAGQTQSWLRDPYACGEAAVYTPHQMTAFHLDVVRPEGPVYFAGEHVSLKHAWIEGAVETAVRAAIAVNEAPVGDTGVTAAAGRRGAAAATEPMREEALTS
Description: In FIG. 18, the sample solution 2 injected through inlet 1 is transferred by a peristaltic pump 4 together with oxygen saturated buffer 3 into a cell 5.
The results obtained by the measurement are shown as relative responses. The reaction was carried out in 0.1M of acetic acid-sodium acetate buffer at pH 5.5 and 30° C.

[2] = target: T2, novel L-glutamic acid oxidase (Streptomyces sp, UniProt Q8L3C7); test: Substrate specificity of the novel enzyme, oxygen electrode method
T2 sequence (Q8L3C7 15-390 limits assumed): T1 sequence (Q8L3C7 15-390 limits assumed)
T2 sequence (Q8L3C7 391-520 limits assumed): T1 sequence (Q8L3C7 391-520 limits assumed)
T2 sequence (Q8L3C7 521-701 limits assumed): T1 sequence (Q8L3C7 521-701 limits assumed)
Description: The concentration of each substrate was 10 mM, and the reactions were carried out at pH 7.4 (0.1 M potassium phosphate buffer) and pH 6.0 (0.1 M acetate buffer).
That is, 1 ml of 0.1 M potassium phosphate buffer (pH 7.4) containing 10 mM sodium L-glutamate was charged into an oxygen electrode cell and 10 μl of an enzyme solution was added thereto to measure the oxygen consumption rate. One unit of enzyme was determined as the amount of enzyme which consumes 1μ mol of oxygen per minute at 30° C. in the absence of catalase (unit: hereinafter abbreviated as "U").

[3] = test system: lyophilized cell of E. coli, which exhibits L-glutamic acid decarboxylase activity; settings: microorganism electrode, cited from earlier work; for Relative sensitivity ratio: glutamic acid = 100
[4] = target: T2, novel L-glutamic acid oxidase; test: Effects of various additives on the activity of the novel enzyme; assay type: biochemical, Streptomyces sp. X-119-6; parameters: from the cultured product of an actinomycete newly isolated from a soil sample; made in house; host or cells: cultured product of the natural (non-recombinant) actinomycete strain, purified
[5] = test system: glutamic acid oxidase (known enzyme); settings: cited from earlier work; for activity of the known enzyme: relative to L-glutamic acid
[6] = pH 5.5, read-out: Relative response (%)
[7] = pH 6, read-out: Relative Activity (%) pH 6.0, substrate 10 mM, pH 6.0 (0.1 M acetate buffer), relative to L-glutamic acid
[8] = pH 7.4, read-out: Relative Activity (%) pH 7.4, substrate 10 mM, pH 7.4 (0.1 M potassium phosphate buffer), relative to L-glutamic acid
[9] = additive 1 mM, pH 7.4, no addition = 100
[10] = pH 5.5; read-out: Relative response (%)
[11] = pH 6, read-out: Relative Activity (%) pH 6.0
[12] = pH 7.4, read-out: Relative Activity (%) pH 7.4
[13] = additive 1 mM, pH 7.4, no addition = 100, read-out: Relative activity

N=C(N)NCCC[C@H](N)C(=O)O [L-Arginine]
activity at 2000 µM [1, 6]: < 0.1%
activity at 10000 µM [2, 7]: < 0.1%
activity at 10000 µM [2, 8]: < 0.1%

N[C@@H](CCC(=O)O)C(=O)O [Glutamic acid]
Relative sensitivity ratio [3]: 100

O=S(=O)([O-])[O-].[Zn+2] [ZnSO4]
Relative activity [4, 9]: 90.3

N[C@H](CCC(=O)O)C(=O)O [D-Glutamic acid]
activity at 2000 µM [1, 10]: < 0.1%
activity at 10000 µM [2, 7]: < 0.1%
activity of the novel enzyme (in words) ([2]; pH 7.4): substantially no activity
activity at 10000 µM [2, 8]: < 0.1%

N[C@@H](Cc1ccccc1)C(=O)O [L-Phenylalanine]
activity at 2000 µM [1, 10]: < 0.1%
activity at 10000 µM [2, 11]: < 0.1%
activity at 10000 µM [2, 12]: < 0.1%

N[C@@H](CS)C(=O)O [L-Cysteine]
activity at 2000 µM [1, 6]: < 0.1%
activity at 10000 µM [2, 7]: < 0.1%
activity at 10000 µM [2, 8]: < 0.1%

[Cl-].[Cl-].[Sr+2] [StCl2]
Relative activity [4, 9]: 97.2

CC(C)[C@H](N)C(=O)O [L-Valine]
activity at 2000 µM [1, 6]: < 0.1%
activity at 10000 µM [2, 7]: < 0.1%
activity at 10000 µM [2, 8]: < 0.1%

[Cl-].[K+] [KCl]
Relative activity [4, 9]: 111.1

[N-]=[N+]=[N-].[Na+] [NaN3]
Relative activity [4, 9]: 100.6

[I-].[K+] [KI]
Relative activity [4, 9]: 100.7

CCN(CC)C(=S)S [DDTC, diethyldithiocarbamate]
activity at 1000 µM [4, 13]: 101%

C[C@H](N)C(=O)O [L-Alanine]
activity at 2000 µM [1, 6]: < 0.1%
activity at 10000 µM [2, 7]: < 0.1%
activity at 10000 µM [2, 8]: < 0.1%

NCCCC[C@H](N)C(=O)O [L-Lysine]
activity at 2000 µM [1, 6]: < 0.1%
activity at 10000 µM [2, 7]: < 0.1%
activity at 10000 µM [2, 8]: < 0.1%

O=S(=O)([O-])[O-].[Mn+2] [MnSO4]
Relative activity [4, 9]: 102.1

[Cl][Ni][Cl] [NiCl2]
Relative activity [4, 9]: 96.5

C[C@H](N)C(=O)O [Alanine]
Relative sensitivity ratio [3]: 0.5

N[C@@H](Cc1c[nH]c2ccccc12)C(=O)O [L-Tryptophan]
activity at 2000 µM [1, 6]: < 0.1%

N[C@@H](Cc1c[nH]cn1)C(=O)O [L-Histidine]
activity at 2000 µM [1, 10]: < 0.1%
activity of the known enzyme [5]: 6.8%
relative activity of the known enzyme ([5]; velocity of enzymatic reaction for L-glutamic acid given as 100): 6.8
activity at 10000 µM [2, 11]: < 0.1%
activity of the novel enzyme (in words) ([2]; pH 7.4): substantially no activity
activity at 10000 µM [2, 12]: < 0.1%

[Ba+2].[Cl-].[Cl-] [BaCl2]
Relative activity [4, 9]: 95.1

[Ca+2].[Cl-].[Cl-] [CaCl2]
Relative activity [4, 9]: 100.0

O=S(=O)(O)c1cc(O)c(O)c(S(=O)(=O)O)c1 [Tiron, 4,5dihydroxy-1,3-benzenedisulfonic acid disodium salt]
activity at 1000 µM [4, 13]: 101%

C[C@@H](O)[C@H](N)C(=O)O [L-Threonine]
activity at 2000 µM [1, 10]: < 0.1%
activity at 10000 µM [2, 11]: < 0.1%
activity at 10000 µM [2, 12]: < 0.1%

CC(C)C[C@H](N)C(=O)O [L-Leucine]
activity at 2000 µM [1, 6]: < 0.1%
activity at 10000 µM [2, 7]: < 0.1%
activity at 10000 µM [2, 8]: < 0.1%

N[C@@H](CO)C(=O)O [L-Serine]
activity at 2000 µM [1, 6]: < 0.1%
activity at 10000 µM [2, 7]: < 0.1%

N[C@@H](CCC(=O)O)C(=O)O [L-Glutamic acid]
activity at 2000 µM [1, 10]: 100%
activity at 10000 µM [2, 11]: 100%
activity at 10000 µM [2, 12]: 100%

NC(=O)C[C@H](N)C(=O)O [L-Asparagine]
activity at 2000 µM [1, 10]: < 1%
activity at 10000 µM [2, 11]: < 0.1%
activity at 10000 µM [2, 12]: < 0.1%

O=S(=O)([O-])[O-].[Li+].[Li+] [Li2 SO4]
Relative activity [4, 9]: 93.8

N[C@@H](CC(=O)O)C(=O)O [L-Aspartic acid]
activity at 2000 µM [1, 6]: < 1%
activity of the known enzyme [5]: ≤ 0.1%
activity of the novel enzyme (in words) ([2]; pH 6.0): substantially no activity; also recorded: substantially no action
activity at 10000 µM [2, 7]: < 0.1%
activity at 10000 µM [2, 8]: 0.6%
Relative Activity (%) pH 6.0 ([2]; substrate 10 mM, pH 6.0 (0.1 M acetate buffer), relative to L-glutamic acid): ≤ 0.1%

O=S(=O)([O-])[O-].O=S(=O)([O-])[O-].O=S(=O)([O-])[O-].[Al+3].[Al+3] [Al2 (SO4)3]
Relative activity [4, 9]: 93.8

N[C@@H](CSSC[C@H](N)C(=O)O)C(=O)O [Cystine]
Relative sensitivity ratio [3]: 0.4

NCC(=O)O [Glycine]
activity at 2000 µM [1, 6]: < 0.1%
activity at 10000 µM [2, 7]: < 0.1%
activity at 10000 µM [2, 8]: < 0.1%
Relative sensitivity ratio [3]: 0.4

c1cnc2c(c1)ccc1cccnc12 [o-phenanthroline]
activity at 1000 µM [4, 13]: 97.8%

NCCC[C@H](N)C(=O)O [L-Ornithine]
activity at 2000 µM [1, 6]: < 0.1%
activity at 10000 µM [2, 7]: < 0.1%
activity at 10000 µM [2, 8]: < 0.1%

N[C@@H](Cc1ccc(O)cc1)C(=O)O [L-Tyrosine]
activity at 10000 µM [2, 7]: < 0.1%
activity at 10000 µM [2, 8]: < 0.1%

[Cl-].[Na+] [NaCl]
Relative activity ([4]; l-glutamic acid oxidase, pH 7.4, 1000 µM): 95.8

CC[C@H](C)[C@H](N)C(=O)O [L-Isoleucine]
activity at 2000 µM [1, 6]: < 0.1%
activity at 10000 µM [2, 7]: < 0.1%
activity at 10000 µM [2, 8]: < 0.1%

c1ccc(-c2ccccn2)nc1 [α,α'-dipyridyl]
activity at 1000 µM [4, 13]: 94.4%

CCN1C(=O)C=CC1=O [NEM, N--ethylmaleimide]
activity at 1000 µM [4, 13]: 94.4%

O=C(O)[C@@H]1CCCN1 [L-Proline]
activity at 2000 µM [1, 6]: < 0.1%
activity at 10000 µM [2, 7]: < 0.1%
activity at 10000 µM [2, 8]: < 0.1%

N[C@@H](CC(=O)O)C(=O)O [Aspartic acid]
Relative sensitivity ratio [3]: 1.0

O=C(O)c1cc[c]([Hg][Cl])cc1 [PCMB, pchloromercuribenzoate]
inhibition of the activity of the novel enzyme ([4]; additive 1 mM, pH 7.4): about 45%
Relative activity [4, 9]: 55.6

CSCC[C@H](N)C(=O)O [L-Methionine]
activity at 2000 µM [1, 6]: < 0.1%
activity at 10000 µM [2, 7]: < 0.1%
activity at 10000 µM [2, 8]: < 0.1%

NC(=O)CC[C@H](N)C(=O)O [Glutamine]
Relative sensitivity ratio, acetone treated cell ([3]; acetone treated cell was employed): 11
Relative sensitivity ratio [3]: 108

O=C(O)CN(CCN(CC(=O)O)CC(=O)O)CC(=O)O [EDTA, ethylenediaminetetraacetic acid]
activity at 1000 µM ([4]; pH 7.4, read-out: Relative activity): 96.5%

[F-].[Na+] [NaF]
Relative activity [4, 9]: 107.6

N=C(N)NCCC[C@H](N)C(=O)O [Arginine]
Relative sensitivity ratio [3]: 0.6

N[C@@H](Cc1c[nH]c2ccccc12)C(=O)O [Tryptophan]
Relative sensitivity ratio [3]: 0.4
